# Experimental data as given in patent US20150351390A1, “COMPOSITIONS AND METHODS FOR AUXIN-ANALOG CONJUGATION” (PIONEER HI-BRED INTERNATIONAL, INC., priority 2012, published 2015).
# Key:
# [1] = tested on: Arabidopsis ecotype Col-0 plant; test: Arabidopsis response to spot infiltrated auxins and conjugates; type: in vivo, Arabidopsis thaliana; conditions: 100 and 250 μM, compared to dicamba alone; result in words
# Protocol: The effect of auxin conjugates was assessed using Arabidoposis (Arabidopsis thialiana) ecotype Col-0 plant. Prior to studies utilizing the auxin conjugates, levels of analytical grade (98%+pure) IAA, 2,4-D and dicamba in solution were applied at various concentrations directly to developmentally similar leaves of 20-23 day old Arabidopsis seedlings by needleless syringe spot infiltration methodology, in order to determine range of auxinic response and severity. Phenotypes were documented relative to control at 1 day post-spot infiltration and subsequently every other day, up to nine days post treatment. Three concentrations were chosen based on reproducibility, and conjugated forms were then studied with 4 or more replicate treatments for each, along with appropriate negative controls (H2O and 10% EtOH).
# (§1) Examples 9 and 10 utilized a spot infiltration method for the delivery of an herbicide directly to leaves of a plant. The method generally allows for the directed delivery of a variety of agents to a localized area of a plant, e.g. localized region of leaves, for screening or assessment purposes, e.g. to quickly assess the response of a plant to the agent. As used in the foregoing examples, the spot infiltration method was used to introduce specific herbicides or specific conjugates of the herbicides to seedling plant leaves. Following introduction of the herbicide or the appropriate conjugate, plants were observed daily for nine days for characteristics of epinasty, trifoliate leaf curly, chlorosis, and new growth recovery.
# (§2) Briefly, a solution of the desired agent is prepared of the desired agent, e.g. as described above in Example 10, solutions (5% EtOH) of 1, 2.5 and 5 mM IAA. The solution is then drawn into a 1 mL BD™ slip-tip syringe, bulk, non-sterile syringe (e.g. Becton, Dickinson and Company, Product No. 301025) with 100 μL markings. The desired volume is then applied to the leaf, e.g. as described in Examples 9 and 10, with the tip of the syring against the leaf and positive pressure applied to the syringe plunger. Sufficient pressure is applied in order to infuse the area beneath the syringe opening, but not so much pressure as to cause a visible-to-the-eye puncture or hole to form in the leaf. Some run-off of solution around the syringe opening is expected. In the foregoing examples, two spots were applied to each of two leaves per seedling for soybean plants. […] In soybean, both spots per leaf were at the distal portion of the leaf about 1-2 cm apart. When the method was applied to Arabidopsis, two developmentally intermediate aged leaves were chosen per plant, and one spot infiltration was carried out per leaf.
# Generally, for Arabidopsis, the two leaves were chosen from opposite sides of rosette. In general, the spot infiltration method is carried out on younger plants in order to minimize experimental footprint and to maintain developmental uniformity. However, the method is not limited to use on young plants and can be easily applied to older plants as determined by the goals of a particular experiment.
# Soybean seeds = test: Phytotoxicity evaluation during soybean germination; type: in vivo; conditions: 1 μM in germination media, 10 days
# Protocol: To evaluate the effect of synthetic auxin conjugates in plants, 2,4-D-Asp, 2,4-D-Glu, dicamba-Asp, and dicamba-Glu were synthesized (Irvine Chemistry Laboratory, Anaheim, Calif.) and tested for auxin effects during soybean germination.
# Asp and Glu conjugates of 2,4-D and dicamba were dissolved in a small quantity of Na2CO3 and ethanol, respectively, diluted in ddH2O to obtain 10 mM stock solution, and filter sterilized. Soybean seeds of a Pioneer elite germplasm were sterilized with chlorine gas as following: a) two layers of seeds were placed in a 100×25 mm plastic Petri dish; b) in an exhaust fume hood, seeds were placed into a glass desiccator with a 250 mL beaker containing 100 mL bleach (5% NaOC1) and 3.5 mL 12N HCl was slowly added to the beaker; c) the lid was sealed closed on the desiccator and the seeds sterilized for at least 24 hr.
# Sterilized soybean seeds were then imbibed in ddH2O under sterile conditions at 25° C. for 24 hours before germination test. For germination test, 6-8 imbibed seeds were placed on a 100×25 mm deep Petri dish plate containing 50 ml germination media supplemented with or without auxin herbicide conjugates. 1 L seed germination media contains 3.21 g GAMBORG B-5 basal medium (PhytoTech), 20 g sucrose, 5 g tissue culture agar, and is pH adjusted to 5.7. Media was autoclaved at 121° C. for 25 min and cooled to 60° C. before the addition of auxin conjugates. Germination was carried out in a Percival growth chamber at 25° C. under 18 hr light and 6 hr dark cycle at 90 to 150 μE/m2/s and grown for 10 days.
# soybean seedlings = test: Soybean seedling response to spot infiltrated auxins and conjugates; type: in vivo; conditions: for 1st trifoliate leaf curl / Chlorotic lesion @ app. Pnt / Epinasty score: spot infiltration
# Protocol: Conjugate forms of auxinic compounds when applied through spot infiltration, a needleless method to introduce exogenous agents into plant cells. Initially, various concentrations of analytical grade (98%+pure) IAA, 2,4-D, and dicamba were prepared as solutions that were applied directly to uni-foliate leaves of 9 day old soybean seedlings by spot infiltration in order to determine the range of auxinic response and severity.
# Spot infiltration comprises applying a compound to be tested in composition that is applied to the surface of a plant, for example, to a leaf or other plant structure. For example, a method for testing a plant response to one or more compounds using spot infiltration comprises a) providing a composition comprising one or more compounds to be tested in a container having at least an opening for the compound enter and/or exit, and one or more elements for moving the composition into or out of the container; b) contacting at least one opening of the container with the surface of a plant and moving the composition comprising one or more compounds to at least the surface of the plant. A container and elements for moving the composition may comprise a syringe body and plunger. Moving the composition to the plant surface comprises contacting the surface with pressure sufficient for the composition to enter the cells of the plant. In an aspect, spot filtration testing comprises measuring an effect of the composition on the contacted plant and comparing that measure or effect to a plant that is not contacted with the composition.
# Plant response phenotypes were documented at one day post-spot infiltration and subsequently every other day, up to nine days post treatment. […] In the studies described herein below, 5 replicate treatments for each conjugate form were conducted, along with appropriate negative controls.
# as §1, §2
smiles,measurement,setting,value
COc1c(Cl)ccc(Cl)c1C(=O)NC(CCC(=O)O)C(=O)O (stereo not drawn) [dicamba-Glu],"Phenotype, Arabidopsis",[1],modest epinasty
same,Soybean seed germination and growth,Soybean seeds,seed germination and growth were normal
same,1st trifoliate leaf curl,soybean seedlings; 50 μM,0
same,Chlorotic lesion @ app. Pnt,soybean seedlings; 50 μM,0
same,Epinasty score,soybean seedlings; 50 μM,0
same,1st trifoliate leaf curl,soybean seedlings; 100 μM,0
same,Chlorotic lesion @ app. Pnt,soybean seedlings; 100 μM,0
same,Epinasty score,soybean seedlings; 100 μM,0
same,1st trifoliate leaf curl,soybean seedlings; 250 μM,0
same,Chlorotic lesion @ app. Pnt,soybean seedlings; 250 μM,0
same,Epinasty score,soybean seedlings; 250 μM,0
same,"Plant response phenotype, soybean","soybean seedlings; 50, 100 and 250 μM, result in words",phenotypes similar to that of negative control
